# Test results published in patent publication EP2435019B1, “DODECA-2E,4E-DIENE AMIDES AND THEIR USE AS MEDICAMENTS AND COSMETICS” (Dr. August Wolff GmbH & Co. KG Arzneimittel, priority 2009, dated 2010).
# Like-named read-outs stand apart in the source and are kept apart here.
# Legend:
# [1] = Critical micelle concentration (CMC) measurement, dye micellization; format: physicochemical; details: fluorescein dye micellization in water, pH 6.9, room temperature
# Procedure: Dye micellization was carried out with a modified version of the method described by Eliyahu et al., Novel dextran-spermine conjugates as transfecting agents: comparing water-soluble and micellar polymers. […] Experiments were carried out on 96-well microtiter plates (excitation at 485 nm, emission at 535 nm). Since the emission of fluorescein is pH-dependent, the pH of the mixture was kept constant at 6.9. The CMC range was determined as the concentration range where the first statistically significant increase in fluorescence was detected.
# CB1 [2] = target: T1, CB1 (Homo sapiens, UniProt P21554); experiment: Radioligand displacement assay on CB1 receptor; format: binding
# T1 construct: purchased Perkin Elmer RBHCB1M
# T1 sequence (P21554 whole entry): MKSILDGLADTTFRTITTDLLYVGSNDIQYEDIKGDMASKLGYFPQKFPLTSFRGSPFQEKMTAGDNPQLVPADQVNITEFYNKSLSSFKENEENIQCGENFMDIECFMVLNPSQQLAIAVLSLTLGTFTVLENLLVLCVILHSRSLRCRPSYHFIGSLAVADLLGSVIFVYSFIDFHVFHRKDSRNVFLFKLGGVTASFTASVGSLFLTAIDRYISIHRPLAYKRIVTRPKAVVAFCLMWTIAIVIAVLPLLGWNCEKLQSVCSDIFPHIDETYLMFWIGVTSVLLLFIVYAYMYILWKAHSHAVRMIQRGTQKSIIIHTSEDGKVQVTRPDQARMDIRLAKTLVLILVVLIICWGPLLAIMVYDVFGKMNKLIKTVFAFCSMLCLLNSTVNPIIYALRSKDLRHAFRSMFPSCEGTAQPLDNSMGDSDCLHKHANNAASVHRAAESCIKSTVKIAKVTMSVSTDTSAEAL
# Procedure: (§1) For the CB1 receptor, binding experiments were performed in the presence of 0.39 nM of the radioligand [^3H]CP55,940 (168 Ci/mmol) (Perkin Elmer, Waltham, MA, US) at 30°C in siliconized glass vials together with 7.16 µg of membrane recombinantly over-expressing CB1 (No. RBHCB1M, Perkin Elmer, Waltham, MA, US), which was resuspended in 0.2 mL (final volume) binding-buffer (50 mM TRIS-HCl, 2.5 mM EGTA, 5 mM MgCl2, 0.5 mg/mL fatty acid free BSA, pH 7.4). Test compounds were present at varying concentrations and the nonspecific binding of the radioligand was determined in the presence of 10 µM CP55,940 (Tocris Cookson Ltd., Bristol, UK). After 1.5 h incubation, the suspension was rapidly filtered through 0.05% polyethylenimine pre-soaked GF/C glass fiber filters on a 96-well cell harvester and washed nine times with 0.5 mL ice-cold washing-buffer (50 mM TRIS-HCl, 2.5 mM EGTA, 5 mM MgCl2, 2% BSA, pH 7.4). Radioactivity on filters was measured with a Beckman LS 6500 scintillation counter in 3 mL Ultima Gold scintillation liquid (Perkin Elmer, Waltham, MA, US). Data collected from three independent experiments performed in triplicates were normalized between 100% and 0% specific binding for [^3H]CP55,940. […] Derived from the dissociation constant (KD) of [^3H]CP55,940 and the concentration-dependent displacement (IC50 value), inhibition constants (Ki) of competitor compounds were calculated using the Cheng-Prusoff equation [Ki = IC50/(1+ L/KD)].
# PGE2 production = details: at 50 µM; LaLone 2007; cited from earlier work
# CB2 [3] = target: T2, CB2 (Homo sapiens, UniProt P34972); details: read-out: affinity towards CB2 receptors, Ki; Gertsch, Planta Med. 2008; cited from earlier work
# T2 sequence (P34972 whole entry): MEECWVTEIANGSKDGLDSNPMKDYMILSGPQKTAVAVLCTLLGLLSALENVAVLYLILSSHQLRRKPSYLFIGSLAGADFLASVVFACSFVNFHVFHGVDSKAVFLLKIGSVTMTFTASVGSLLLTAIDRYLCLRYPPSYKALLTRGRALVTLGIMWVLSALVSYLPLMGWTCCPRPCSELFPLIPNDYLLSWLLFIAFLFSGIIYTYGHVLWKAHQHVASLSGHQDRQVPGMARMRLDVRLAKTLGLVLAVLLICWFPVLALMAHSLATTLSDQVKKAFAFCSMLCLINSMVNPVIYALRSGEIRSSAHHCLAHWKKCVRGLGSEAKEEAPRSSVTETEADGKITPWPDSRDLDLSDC
# CB2 receptors = details: Woelkart, Planta Med. 2005; cited from earlier work
# FAAH [4] = details: cited from earlier work
# CB1 [5] = target: CB1 (Rattus norvegicus, UniProt P20272); details: Woelkart, Planta Med. 2005; cited from earlier work
# Chain of CB1 (Rattus norvegicus, UniProt P20272) (P20272 whole entry): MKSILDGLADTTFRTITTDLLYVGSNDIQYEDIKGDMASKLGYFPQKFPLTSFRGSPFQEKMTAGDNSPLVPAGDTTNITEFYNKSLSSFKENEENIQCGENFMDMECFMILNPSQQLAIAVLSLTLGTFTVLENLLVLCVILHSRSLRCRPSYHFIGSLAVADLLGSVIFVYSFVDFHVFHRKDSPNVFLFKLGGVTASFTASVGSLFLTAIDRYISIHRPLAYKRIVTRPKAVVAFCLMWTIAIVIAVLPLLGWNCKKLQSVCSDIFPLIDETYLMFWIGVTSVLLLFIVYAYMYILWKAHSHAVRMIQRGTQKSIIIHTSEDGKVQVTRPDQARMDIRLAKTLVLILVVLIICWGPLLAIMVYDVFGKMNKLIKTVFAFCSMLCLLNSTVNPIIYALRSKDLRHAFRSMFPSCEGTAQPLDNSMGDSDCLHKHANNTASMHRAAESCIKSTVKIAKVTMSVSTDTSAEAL
# FAAH [6] = target: T3, FAAH (Sus scrofa, UniProt Q9TUI8); experiment: Fatty acid amide hydrolase (FAAH) inhibition, pig brain homogenate (assay D); format: biochemical; details: 1 µM; pig brain homogenate (assay D)
# T3 construct: 165 µl of diluted pig brain homogenate; from tissue; host or cells: pig brain homogenate
# T3 sequence (Q9TUI8 1-579): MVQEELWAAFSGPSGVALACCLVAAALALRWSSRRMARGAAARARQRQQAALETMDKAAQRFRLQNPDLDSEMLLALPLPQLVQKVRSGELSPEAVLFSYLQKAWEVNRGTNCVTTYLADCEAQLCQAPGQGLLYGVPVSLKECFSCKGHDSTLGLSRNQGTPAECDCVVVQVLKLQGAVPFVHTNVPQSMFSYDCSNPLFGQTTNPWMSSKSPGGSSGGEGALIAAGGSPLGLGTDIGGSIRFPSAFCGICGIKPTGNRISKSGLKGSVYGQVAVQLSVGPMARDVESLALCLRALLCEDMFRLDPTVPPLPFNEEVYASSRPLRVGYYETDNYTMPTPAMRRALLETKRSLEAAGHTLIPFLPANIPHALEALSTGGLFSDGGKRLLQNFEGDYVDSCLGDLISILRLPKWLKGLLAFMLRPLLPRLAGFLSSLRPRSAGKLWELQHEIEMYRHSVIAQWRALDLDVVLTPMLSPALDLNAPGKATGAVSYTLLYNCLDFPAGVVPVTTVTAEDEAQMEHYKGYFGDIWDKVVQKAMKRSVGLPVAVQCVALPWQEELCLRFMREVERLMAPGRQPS
# Procedure: FAAH activity was assessed using pig brain homogenate according to the method described by Omeir et al., Arachidonoyl ethanolamide-[1,2-14C] as a substrate for anandamide amidase. Life Sci. 1995;56(23-24):1999-2005, and adapted by Fowler et al., Ibuprofen inhibits rat brain deamidation of anandamide at pharmacologically relevant concentrations. Mode of inhibition and structure-activity relationship. J Pharmacol Exp Ther. 1997 Nov;283(2):729-34. Briefly, 10 µl of test compounds at the adequate concentration or solvent were incubated at 37°C for 20 min with 165 µl of diluted pig brain homogenate in 10 mM Tris-HCl and 1 mM EDTA, pH 7.6 (corresponding to 100 µg/ml of total protein), 1% w/v fatty acid free BSA (Sigma, San Louis, MO, US) and 25 µl of a mixture 1:1 of nonradioactive AEA [^3H]-AEA (60 Ci mmol^-1) (concentration in the assay was 2 µM). Successively, 400 µl of a mixture 1:1 (v/v) of methanol:chloroform was added at each sample and, after vigorous vortexing, aqueous and organic phases were separated by centrifugation at 10000 rpm for 10 min. The radioactivity associated to the [^3H]-ethanolamine (produced by FAAH-catalysed breakdown of [^3H]-AEA) was measured upon addition of 3 ml of Ultima Gold scintillation liquid (Perkin Elmer, Waltham, MA, US) to 200 µl of the aqueous (upper) phase, using a Beckman LS6500 scintillation counter. Results were expressed as % of FAAH activity vs. pig brain homogenate treated only with solvent.
# [7] = at 50 µM; Chen 2005; cited from earlier work
# CB2 [8] = target: T2, CB2; experiment: Radioligand displacement assay on CB2 receptor; format: binding; set-up: purchased Perkin Elmer RBXCB2M
# Procedure: as §1
# For CB2-receptor binding studies 3.8 µg of membrane recombinantly over-expressing CB2 (No. RBXCB2M, Perkin Elmer, Waltham, MA, US) were resuspended in 0.6 mL binding buffer (see above) together with 0.11 nM of the radioligand [^3H]CP55,940. The CB2-binding assay was conducted in the same manner as for CB1.
# [9] = test system: RAW264.7 mouse macrophage cells; details: at 50 µM; LaLone 2007; cited from earlier work
# [10] = test system: Arachidonoylethanolamide Transport (AEAT); experiment: Cellular uptake of [3H]-AEA in U937 cells (assay C); format: cell-based; details: Homo sapiens, U-937; [3H]-AEA uptake, assay C (Tables 2 and 3)
smiles,measurement,setting,value
"CCCCCCC/C=C/C=C/C(=O)NCC(C)C [Compound A, (2E,4E)-N-isobutyldodeca-2,4-diene amide]",CMC,[1],<0.5 µM
same,Ki,"CB1 [2]; displacement of 0.39 nM [3H]CP55,940, membrane recombinantly over-expressing CB1, read-out: Receptor affinity Ki CB1",1.94 ± 0.213 µM
same,affinity towards CB1 (in words),CB1 [2]; summary of Table 3,moderate affinity
same,PGE2 production,PGE2 production,inhibiting
same,Ki,CB2 [3],< 0.1 µM
same,affinity to CB2 receptor,CB2 receptors,single digit micromolar range
same,inhibition of FAAH,"FAAH [4]; Gertsch, Planta Med. 2008",did not inhibit
same,inhibition of FAAH,"FAAH [4]; Woelkart, Planta Med. 2005",very weak inhibitor
same,affinity to CB1 receptor,CB1 [5],single digit micromolar range
same,FAAH inhibition at 1 µM,FAAH [6],<10 % of control
same,cell death,[7],50%
same,Ki,"CB2 [8]; displacement of 0.11 nM [3H]CP55,940, membrane recombinantly over-expressing CB2, read-out: Receptor affinity Ki CB2",0.06 ± 0.007 µM
same,affinity towards CB2 (in words),CB2 [8]; summary of Table 3,high affinity
same,cytotoxicity,[9],No significant cytotoxicity
same,EC50,[10],> 10 µM
